For one assay, the system named is PR1. The experiment in a line: Quantitative real-time PCR of PR1 gene expression after SA or BTH treatment. The class given is in vivo, Arabidopsis thaliana. Particulars: Col wild type. How it is done: (§1) Arabidopsis (Arabidopsis thaliana accession Columbia), canola (Brassica napus var. Westar), and soybean (Glycine max var. Harasoy) plants were grown in Sunshine Mix at 22° C., 60% relative humidity (RH), and ˜140 μE m^−2 s^−1 with a 9h-photoperiod. 7-10 day-old Arabidopsis plants were infected with Hyaloperonospora arabidopsidis (Hpa). Spore counts of 1×10^5 conidiospores ml^−1, 8×10^5 cells ml^−1, and 2×10^5 cells ml^−1 were used for Noco2, Emco5, and Emwa1 isolates, respectively. Seedlings were then infected via drop inoculation and left at 16° C., >90% RH for 7-10 days before disease assessment. 4-week-old plants were infiltrated with 1×10^5 CFU ml^−1 of the bacterial pathogen, Pseudomonas syringae tomato DC3000 (AvrRps4) and bacterial growth was assessed at 0 and 3 days post infiltration.
(§2) RNA extraction was carried out using the TRIzol reagent (Life Technologies, Carlsbad, Calif.), according to the manufacturer's instructions. Reverse transcriptase (RT)-PCR was performed using cDNA generated by SuperScript II Reverse Transcriptase (Life Technologies, Carlsbad, Calif.) according to the manufacturer's instructions. Expression of PR1 was visualized by gel electrophoresis of samples after RT-PCR with PR1 primers (AtPR1-F, AtPR1-R).
(§3) Quantitative real-time PCR was performed using Fast SYBR Green Master Mix (Life Technologies, Carlsbad, Calif.). […]

In the next assay the test system is AtTTM2. The experiment in a line: Quantitative real-time PCR of AtTTM2 expression after SA, BTH or flg22 treatment. The class given is in vivo, Arabidopsis thaliana. The procedure: as §1, §2, §3
Another assay concerns OsTTM2. In words: Expression of TTM2 in rice after BTH treatment. The format is in vivo, Oryza sativa. The settings on record: 4 week old rice, 200 uM BTH, 48 hours. How it is done: (§4) Tomato, Cucumber, Pepper and Petunia plants for BTH treatment were grown in Sunshine Mix at 22° C., 60% relative humidity, and approximately 140 uE m^−2 s^−1 with a 9-h photoperiod. Rice and Brachypodium distachyon plants for BTH treatment were grown in Rice Mix. tomato plants for Pseudomonas infection were grown in Sunshine Mix, at 22° C. 60% relative humidity, and natural light condition.
(§5) FIG. 26 illustrates expression of OsTTM2 in 4 week old rice (Oryza sativa) plant and BdTTM2 in the model monocotyledonous plant Brachypodium distachyon 48 hours after BTH (200 uM) treatment. Solution was sprayed with the addition of 0.025% (v/v) Silwet. Expression of both genes was suppressed similar to Arabidopsis TTM2.

Another assay relates to BdTTM2. In words: Expression of TTM2 in Brachypodium distachyon after BTH treatment. The format is in vivo. The settings on record: 200 uM BTH, 48 hours. How it is done:
as §4, §5

The next assay concerns GmTTM2a/b. The experiment in a line: qPCR of TTM2 orthologues in soybean after BTH treatment. The settings on record: soybean var. Harasoy, 200 μM BTH, 48hrs. The format is in vivo, Glycine max. How it is done:
as §1
(§6) Quantitative real-time PCR was performed using Fast SYBR Green Master Mix (Life Technologies, Carlsbad, Calif.). The expression of Arabidopsis genes were normalized to the expression of AtEF1A (elongation factor1-alpha) while the expression of soybean and canola genes were normalized to GmEF1B (elongation factor1-beta) and BnUBC21 (ubiquitin conjugating enzyme21), respectively.
(§7) 7- to 10-day old Arabidopsis seedlings were treated with 100 μM SA or 200 μM BTH. […]

The test system of another assay is PhTTM2A and B. In words: Expression of TTM2 in Petunia after BTH treatment. Particulars: 4-5 week old Petunia, 200 uM BTH, 48 hours. The class given is in vivo, Petunia hybrida. The procedure:
as §4
FIG. 25 illustrates expression of PhTTM2A and B in approximately 4-5 week old Petunia (Petunia hybrida) 48 hours after BTH (200 uM) treatment. Solution was sprayed with the addition of 0.025% (v/v) Silwet. Expression of both genes was suppressed similar to Arabidopsis TTM2.

The next assay deals with SITTM2A and B. In words: Expression of TTM2 in tomato after BTH treatment. The class given is in vivo, Solanum lycopersicum. Particulars: 4-5 week old tomato, 200 μM BTH, 48 hours. How it is done: as §4
FIG. 23 illustrates expression of SITTM2A and B in approximately 4-5 week old tomato (Solanum lycopersicum) 48 hours after with and without BTH (200 μM) treatment. Solution was sprayed with the addition of 0.025% (v/v) Silwet. Expression of both genes was suppressed similar to Arabidopsis TTM2.

The test system of another assay is CsTTM2. The experiment in a line: Expression of TTM2 in cucumber after BTH treatment. Particulars: 4-5 week old cucumber, 200 uM BTH, 48 hours. The class given is in vivo, Cucumis sativus. The procedure:
as §4
FIG. 24a illustrates expression of CsTTM2 in approximately 4-5 week old cucumber (Cucumis sativus) 48 hours after BTH (200 uM) treatment. Solution was sprayed with the addition of 0.025% (v/v) Silwet. Expression of the gene was suppressed similar to Arabidopsis TTM2.

The next assay deals with CaTTM2. In words: Expression of TTM2 in pepper after BTH treatment. The format is in vivo, Capsicum annuum. Particulars: 4-5 week old pepper, 200 uM BTH, 48 hours. The procedure:
as §4
FIG. 24b illustrates expression of CaTTM2 in approximately 4-5 week old pepper (Capsicum annuum) 48 hours after BTH (200 uM) treatment. Solution was sprayed with the addition of 0.025% (v/v) Silwet. Expression of the gene was suppressed similar to Arabidopsis TTM2.

The test system of another assay is BnTTM2a, BnTTM2b. The experiment in a line: qPCR of TTM2 orthologues in canola after BTH treatment. The format is in vivo, Brassica napus. Particulars: canola var. Westar, 200 μM BTH, 48hrs. How it is done: as §1, §6, §7

This note sets out measurements from patent US20170016019A1, “Plants Having Enhanced Pathogen Resistance and Methods of Modulating Pathogen Resistance in Plants” (The Governing Council of the University of Toronto, priority 2014, published 2017).

As for `O=C(O)c1ccccc1O` [SA, salicylic acid], in the assay with PR1 (100 μM SA, 24h), the “PR1 gene expression after SA treatment” value was “increase in PR1 gene expression”. Also, in the assay with AtTTM2 (Col wild type plants sprayed with 100 μM SA, 24h), the “AtTTM2 down-regulation after SA treatment” value is “more than 2 fold”.

On to `c1ccc2snnc2c1` [BTH, benzothiadiazole], for which the “Expression of OsTTM2 after BTH treatment” value in the assay on OsTTM2 is “suppressed”. In addition, the “Expression of BdTTM2 after BTH treatment” value in the assay on BdTTM2 is listed as “suppressed”. Also, the “PR1 gene expression after BTH treatment” value with PR1 (200 μM BTH, 48h) was “increase in PR1 gene expression”. For the same molecule, the “Expression of GmTTM2a/b in response to BTH” value in the assay with GmTTM2a/b is listed as “similarly down-regulated”. Moreover, in the assay on PhTTM2A and B, the “Expression of PhTTM2A and B after BTH treatment” value was “suppressed”. For the same molecule, the “Expression of SITTM2A and B after BTH treatment” value with SITTM2A and B is given as “suppressed”. The “Expression of CsTTM2 after BTH treatment” value with CsTTM2 is given as “suppressed”. In the assay with CaTTM2, the “Expression of CaTTM2 after BTH treatment” value is reported as “suppressed”. Further, the “AtTTM2 down-regulation after BTH treatment” value in the assay with AtTTM2 (Col wild type, 200 μM BTH, 48h) was “down-regulation was also observed”. The “Expression of BnTTM2a, BnTTM2b in response to BTH” value with BnTTM2a, BnTTM2b was “similarly down-regulated”.
